From patent US10139394B2, “Method for controlling cancer metastasis or cancer cell migration by modulating the cellular level of lysyl tRNA synthetase” (Medicinal Bioconvergence Research Center, priority 2008, dated 2018)

What was measured:
KRS and EPRS = test: Co-immunoprecipitation of KRS with EPRS (multi-ARS complex); assay type: cell-based; settings: A549 cells; absence of LY compound; FIG. 12
Protocol: In FIG. 7, A549 cells were treated with laminin (10 ug/ml) and the level of 67LR, 37LRP and KRS was determined by Western blotting at the indicated times. Hsp90 and Cadherin were used as markers for cytoplasm and membrane, respectively. In FIG. 8, A549 cells untreated or treated with laminin for 1 h were subjected to immunofluorescence staining with anti-67LR (MLuC5, Santacruz, sc-59732) (red) and -KRS antibodies (green). In FIG. 9, A549 cells were treated with U73122 (U), staurosporin (ST) and LY294002 (LY) that inhibit PLC-gamma, PKC and PI3K, respectively, for 3 hr, then with laminin for 1 hr and checked how these kinase inhibitors would affect the membrane and cytoplasmic level of 67LR and KRS. In FIG. 10, A549 cells were transfected with Myc-KRS and incubated for 24 h. The cells were treated with the indicated chemicals and then with laminin as above. Myc-KRS was immunoprecipitated, and immunoblotted with anti-p-Thr, -Ser, and -Tyr antibodies. In FIG. 11, A549 cells were transfected with Myc-KRS and cultivated for 24 hr. The transfectants were pre-treated with LY294002 for 3 hr and then treated with laminin for 1 h. Myc-KRS was immunoprecipitated and co-precipitation of 67LR was determined by Western blotting. […] EPRS (glutamyl-prolyl-tRNA synthetase) was immunoprecipitated with its specific antibody (AbCam), and co-immunoprecipitation of KRS was determined by Western blotting (upper). […]

67LR = 67LR level in membrane and cytoplasm of A549 cells (Western blotting, flow cytometry); assay type: cell-based; settings: membrane fraction, FIG. 13
Protocol: In FIG. 13, A549 cells were transfected with si-control or si-KRS and incubated in the absence and presence of laminin. The cells were then separated to cytoplasm and membrane fractions, and the levels of 67LR and KRS in each fraction were determined by Western blotting. Cadherin (cad) and hsp90 were used as the markers for plasma membrane and cytoplasm, respectively. In FIG. 14, the membrane-bound 67LR level in A549 cells was monitored by flow cytometry using anti-LR antibody (MLuC5). The cells were transfected with empty vector or KRS plasmid and incubated for 24 h (upper). […] In FIG. 15, A549 cells transfected with EV or KRS was selected with G418 for a week and cellular distribution of 67LR was determined by immunofluorescence staining with anti-LR antibody (MLuC5). […] In FIG. 16, A549 cells were treated with cycloheximide to inhibit de novo protein synthesis and the effect of KRS levels on 67LR level in membrane and cytoplasm was determined by Western blotting. In FIG. 17, the importance of KRS for cellular stability of 67LR was determined by pulse-chase experiment. […]
To address cell cycle, the cultivated cells were transfected or treated with the indicated vector or chemicals, fixed with 70% ethanol for 1 hr at 4° C. and washed with ice-cold PBS two times. […] For each sample, 20,000 cells were analyzed using Cell Quest Pro software. […]

laminin: laminin (Engelbreth-Holm-Swarm murine sarcoma) from Sigma
association of KRS with EPRS (KRS and EPRS): decreased
67LR level (67LR): increased
